Patent US9125388B2, “Biological control” (Isis Innovation Limited, priority 1999, dated 2015)

What was measured:
Assay in all cases: Recombinant chromosome experiments: parents raised on supplement, progeny on normal food, adults by sex (25, 18 or 29° C.)
Assay type in all cases: in vivo, Drosophila melanogaster
[1] = system: Sxlp^e tTa, tRe Msl-1^Mpu on the X chromosome
[2] = system: Hsp26 tTa, tRe Msl-2^Nopu on the 2nd chromosome
[3] = system: Sxl^pe-tTA, tRE-Ras64B^V12 on the X chromosome; conditions: for Female progeny / Male progeny: 18° C., then tetracycline-free food; for Female progeny per daily vial / Female progeny Total / Male progeny Total: 25° C.; for Female progeny per daily vial: Day 1-12 on tetracycline-free food; for Female progeny Total / Male progeny Total: Day 1-12 total; for Female progeny emerging as adults / Male progeny emerging as adults: 29° C.
[4] = system: Sxl^pe-tTA, tRE-Msl-2^Nopu on the third chromosome; conditions: for Female progeny per daily vial / Female progeny Total / Male progeny Total: 25° C.; for Female progeny per daily vial: Day 1-12 on tetracycline-free food; for Female progeny Total / Male progeny Total: Day 1-12 total
[5] = system: Yp3 tTa, tRe Msl-2^Nopu on the 2nd chromosome
[6] = parents raised on tetracycline 0.1 μg/ml, 18° C.
[7] = parents raised on tetracycline 0.1 μg/ml, 29° C.
[8] = parents raised on tetracycline 1 μg/ml, 18° C.
[9] = parents raised on tetracycline 1 μg/ml, 29° C.
[10] = parents raised on tetracycline 5 μg/ml, 18° C.
[11] = parents raised on tetracycline 5 μg/ml, 29° C.
[12] = parents raised on Tetracycline 0.1 μg/ml
[13] = parents raised on Tetracycline 1 μg/ml
[14] = parents raised on Tetracycline 5 μg/ml
[15] = parents raised on Tet. 0.1 μg/ml
[16] = parents raised on Tet. 20 μg/ml
[17] = parents raised on Tet. 100 μg/ml
[18] = parents raised on Tet. 500 μg/ml
[19] = parents raised on Tet. 1000 μg/ml
[20] = parents raised on Tet. 2000 μg/ml
[21] = parents raised on tetracycline 0.1 μg/ml
[22] = parents raised on tetracycline 1 μg/ml
[23] = parents raised on tetracycline 5 μg/ml

`CN(C)[C@@H]1C(O)=C(C(N)=O)C(=O)[C@@]2(O)C(O)=C3C(=O)c4c(O)cccc4[C@@](C)(O)[C@H]3C[C@@H]12` [Tetracycline, tetracycline] was tested, and the “Female progeny emerging as adults” value [1, 6] was 8, the “Male progeny emerging as adults” value [1, 6] was 840 and the “Female progeny emerging as adults” value [1, 7] was 0. For the same compound, the “Male progeny emerging as adults” value [1, 7] was 732, the “Female progeny emerging as adults” value [1, 8] was 5 and the “Male progeny emerging as adults” value [1, 8] was 927. The “Female progeny emerging as adults” value [1, 9] was 0, the “Male progeny emerging as adults” value [1, 9] was 771 and the “Female progeny emerging as adults” value [1, 10] was 8. For the same compound, the “Male progeny emerging as adults” value [1, 10] was 837, the “Female progeny emerging as adults” value [1, 11] was 0 and the “Male progeny emerging as adults” value [1, 11] was 816. For the same compound, the “Female progeny emerging as adults” value [2, 6] was 8, the “Male progeny emerging as adults” value [2, 6] was 832 and the “Female progeny emerging as adults” value [2, 7] was 0. For the same compound, the “Male progeny emerging as adults” value [2, 7] was 696, the “Female progeny emerging as adults” value [2, 8] was 7 and the “Male progeny emerging as adults” value [2, 8] was 879. For the same compound, the “Female progeny emerging as adults” value [2, 9] was 0, the “Male progeny emerging as adults” value [2, 9] was 658 and the “Female progeny emerging as adults” value [2, 10] was 4. For the same compound, the “Male progeny emerging as adults” value [2, 10] was 818, the “Female progeny emerging as adults” value [2, 11] was 0 and the “Male progeny emerging as adults” value [2, 11] was 711. The Female progeny [3, 12] was 8, the Male progeny [3, 12] was 982 and the Female progeny [3, 13] was 10. The Male progeny [3, 13] was 912, the Female progeny [3, 14] was 7 and the Male progeny [3, 14] was 871. For the same compound, the “Female progeny per daily vial” value [3, 15] was 0, the “Female progeny Total” value [3, 15] was 0 and the “Male progeny Total” value [3, 15] was 1262. For the same compound, the “Female progeny per daily vial” value ([3]; parents raised on Tet. 1 μg/ml) was 0, the “Female progeny Total” value ([3]; parents raised on Tet. 1 μg/ml) was 0 and the “Male progeny Total” value ([3]; parents raised on Tet. 1 μg/ml) was 1399. The “Female progeny per daily vial” value ([3]; parents raised on Tet. 5 μg/ml) was 0, the “Female progeny Total” value ([3]; parents raised on Tet. 5 μg/ml) was 0 and the “Male progeny Total” value ([3]; parents raised on Tet. 5 μg/ml) was 1359. The “Female progeny per daily vial” value [3, 16] was 0, the “Female progeny Total” value [3, 16] was 0 and the “Male progeny Total” value [3, 16] was 1398. For the same compound, the “Female progeny per daily vial” value [3, 17] was 0, the “Female progeny Total” value [3, 17] was 0 and the “Male progeny Total” value [3, 17] was 1469. For the same compound, the “Female progeny Total” value [3, 18] was 25, the “Male progeny Total” value [3, 18] was 1478 and the “Female progeny Total” value [3, 19] was 49. The “Male progeny Total” value [3, 19] was 1349, the “Female progeny Total” value [3, 20] was 92 and the “Male progeny Total” value [3, 20] was 1439. For the same compound, the “Female progeny emerging as adults” value [3, 21] was 0, the “Male progeny emerging as adults” value [3, 21] was 716 and the “Female progeny emerging as adults” value [3, 22] was 0. For the same compound, the “Male progeny emerging as adults” value [3, 22] was 711, the “Female progeny emerging as adults” value [3, 23] was 0 and the “Male progeny emerging as adults” value [3, 23] was 715. The “Female progeny per daily vial” value [4, 15] was 0, the “Female progeny Total” value [4, 15] was 0 and the “Male progeny Total” value [4, 15] was 1267. The “Female progeny per daily vial” value ([4]; parents raised on Tet. 1 μg/ml) was 0, the “Female progeny Total” value ([4]; parents raised on Tet. 1 μg/ml) was 0 and the “Male progeny Total” value ([4]; parents raised on Tet. 1 μg/ml) was 1171. The “Female progeny per daily vial” value ([4]; parents raised on Tet. 5 μg/ml) was 0, the “Female progeny Total” value ([4]; parents raised on Tet. 5 μg/ml) was 0 and the “Male progeny Total” value ([4]; parents raised on Tet. 5 μg/ml) was 1165. For the same compound, the “Female progeny per daily vial” value [4, 16] was 0, the “Female progeny Total” value [4, 16] was 0 and the “Male progeny Total” value [4, 16] was 1127. The “Female progeny per daily vial” value [4, 17] was 0, the “Female progeny Total” value [4, 17] was 0 and the “Male progeny Total” value [4, 17] was 1168. The “Female progeny per daily vial” value [4, 18] was 0, the “Female progeny Total” value [4, 18] was 0 and the “Male progeny Total” value [4, 18] was 1137. The “Female progeny Total” value [4, 19] was 3, the “Male progeny Total” value [4, 19] was 1309 and the “Female progeny Total” value [4, 20] was 32. The “Male progeny Total” value [4, 20] was 1325, the “Female progeny emerging as adults” value [4, 6] was 2 and the “Male progeny emerging as adults” value [4, 6] was 973. The “Female progeny emerging as adults” value [4, 7] was 0, the “Male progeny emerging as adults” value [4, 7] was 749 and the “Female progeny emerging as adults” value [4, 8] was 9. The “Male progeny emerging as adults” value [4, 8] was 985, the “Female progeny emerging as adults” value [4, 9] was 0 and the “Male progeny emerging as adults” value [4, 9] was 737. The “Female progeny emerging as adults” value [4, 10] was 5, the “Male progeny emerging as adults” value [4, 10] was 983 and the “Female progeny emerging as adults” value [4, 11] was 0. The “Male progeny emerging as adults” value [4, 11] was 718, the “Female progeny emerging as adults” value [5, 6] was 8 and the “Male progeny emerging as adults” value [5, 6] was 1152. For the same compound, the “Female progeny emerging as adults” value [5, 7] was 0, the “Male progeny emerging as adults” value [5, 7] was 765 and the “Female progeny emerging as adults” value [5, 8] was 12. The “Male progeny emerging as adults” value [5, 8] was 1122, the “Female progeny emerging as adults” value [5, 9] was 0 and the “Male progeny emerging as adults” value [5, 9] was 702. The “Female progeny emerging as adults” value [5, 10] was 3, the “Male progeny emerging as adults” value [5, 10] was 1225 and the “Female progeny emerging as adults” value [5, 11] was 0. The “Male progeny emerging as adults” value [5, 11] was 773.
